Test results from patent US8507481B2, “Benzoxazine oxazolidinone compounds, preparation methods and uses thereof” (Shanghai Institute of Materia Medica, Chinese Academy of …, priority 2010, dated 2013).
In brackets after ≈: the same amount, converted by molar mass. Several values for one entry are separate records, joined by “and”; a condition that tells them apart may be missing. Equal values may be shown once. Read-outs that look alike come from different tables or passages of the source.

How the values were obtained:
[1] = In vivo pharmacokinetic trial in rat (gavage and intravenous injection); set-up: species or system SD male rats
Procedure: The tested compound was Compound 7, using two administration routes (gavage and intravenous injection).
(§1) Gavage: four healthy SD male rats weighing 200-250 g were given a dose of 15 mg/kg, with an administered volume of 10 mL/kg. And the compound was prepared as 0.5% CMC—Na. The animals were fasted for 12 hours and had free access to water before administration, 0.3 mL of venous blood was sampled through retrobulbar venous plexus at 0.25, 0.5, 1, 0, 2.0, 3.0, 4.0, 5.0, 7.0, 9.0, 24, and 48 hours after administration and collected in heparinized test tubes, which is subjected to centrifugation at 3500 rpm for 10 min to separate the plasma, and stored at −20° C. for testing.
as §1, with “Intravenous injection: two” for “Gavage: four”, “using DMSO, Tween 80 and deionized water.” for “as 0.5% CMC—Na.”, “5 min, 15 min,” for “0.25,”, “1.0,” for “1, 0,”
Concentration of Compound 7 in plasma was determined using liquid chromatography-tandem mass spectrometry.

[2] = test system: methicillin-resistant Staphylococcus aureus (MRSA); experiment: In vivo antibacterial activity in mice infected with MRSA; set-up: species or system Kunming mice; settings: for ED50: Staphylococcus aureus
From the text: Experimental strains: the bacteria used for infecting animals was methicillin-resistant Staphylococcus aureus (MRSA), which was clinically isolated pathogenic bacteria collected in Nanjing area in 2009, and re-identified by the API method.
Experimental animals: Healthy Kunming mice of SPF grade and weighing 18-22 g were chosen, and male and female were 50% each, and they were supplied by animal breeding office of Pharmacology Laboratory, China Pharmaceutical University.
Test method of infection and treatment: The experimental animals were evenly grouped by sex and weight, each group had 10 mice, including 50% of male and female, respectively. Intraperitoneal injection of bacteria solution was performed among animals at 0.5 mL/animal. One hour after infection, the tested drug solution (Compound 7 of the present invention and the positive control drug LZ) of different concentrations were given to each animal by oral gavage or intravenous injection at 0.5 mL/20 g, respectively. For mice receiving oral gavage, another gavage was given 4 hours after the first dose, observation was performed after administration, and death was recorded. An infected control group was set up for the same group, and the number of the deaths within seven days after infection was recorded.
Experimental data processing: median effective dose ED50 and 95% confidence limits were calculated by Bliss for in vivo protective effect of each tested drug among mice infected with tested strain.

[3] = test system: Staphylococcus epidermidis sensitive strain (5 strains); experiment: MIC by agar dilution, Staphylococcus epidermidis sensitive strains; assay type: cell-based; set-up: unit not given here; settings: 35° C., 16 hours
Procedure: (§2) Test method: minimal inhibitory concentration (MIC) of series of compounds of the present invention and the positive control drug linezo lid against the tested strains was determined using agar dilution method (Antimicrob. Agents and Chemother., 40, 1996. 720-726). The bacteria was inoculated on the surface of agar plates with different drug concentrations using a multi-point inoculation instrument (Denley A400). Inoculum of each point was about 10^6 CFU/mL, and inoculation was performed at 35° C. for 16 hours to get observation. The minimal concentration of a drug contained in the plate medium without bacteria growth was considered as the minimal inhibitory concentration (MIC value) of the drug against bacteria.
(§3) Tested strains: the tested strains were clinically isolated pathogenic bacteria collected in the Nanjing area, and re-identified by conventional methods before use. 31 pathogenic bacteria are selected, and strain serial numbers were as following: six enterococci; five Staphylococcus aureus sensitive strains; five Staphylococcus epidermidis sensitive strains; six Staphylococcus aureus drug-resistant strains; five Staphylococcus epidermidis drug-resistant strains; four pneumococcus drug-resistant strains.
(§4) At first, tested compounds were added into 2 mL of DMSO, which could facilitate full dissolution, and then sterile double distilled water was added to a desired concentration; 20 mL MH medium in heat-melted to liquid was added to each of plates with drug solution, so that the final drug concentrations in the plates were 64, 32, 16, 8, 4, 2, 1, 0.5, 0.25, 0.125, 0.0625 and 0.031 μg/mL.
(§5) The positive control group was LZ (linezolid, trade name Zyvox, which was approved by the FDA in 2000 to be first launched in the United States and is the first and only oxazolidinone antibacterial drug permitted to be used in clinical practice at present).

[4] = test system: Staphylococcus epidermidis drug-resistant strain (5 strains); experiment: MIC by agar dilution, Staphylococcus epidermidis drug-resistant strains; assay type: cell-based; settings: 35° C., 16 hours
Procedure: as §2, §3, §4, §5

[5] = test system: Pneumococcus drug-resistant strain (4 strains); experiment: MIC by agar dilution, pneumococcus drug-resistant strains; assay type: cell-based; set-up: unit not given here; settings: 35° C., 16 hours
Procedure: as §2, §3, §4, §5

[6] = test system: Staphylococcus aureus drug-resistant strain (6 strains); experiment: MIC by agar dilution, Staphylococcus aureus drug-resistant strains; assay type: cell-based; set-up: unit not given here; settings: 35° C., 16 hours
Procedure: as §2, §3, §4, §5

[7] = test system: Staphylococcus aureus sensitive strain (5 strains); experiment: MIC by agar dilution, Staphylococcus aureus sensitive strains; assay type: cell-based; settings: 35° C., 16 hours
Procedure: as §2, §3, §4, §5

Enterococcus (6 strains) = experiment: MIC by agar dilution, Enterococcus; assay type: cell-based; settings: 35° C., 16 hours
Procedure: as §2, §3, §4, §5

[8] = gavage 15 mg/kg, individual animals No. 1-4, 15 mg/kg
[9] = gavage 15 mg/kg, mean of 4 animals
[10] = intravenous injection 15 mg/kg, individual animals No. 5-6, 15 mg/kg
[11] = intravenous injection 15 mg/kg, mean of 2 animals
[12] = male, SD, plasma, iv, 15 mg/kg, intravenous injection 15 mg/kg, individual animals No. 5-6
[13] = male, SD, plasma, po, 15 mg/kg, gavage 15 mg/kg, individual animals No. 1-4
[14] = male, SD, plasma, po, 15 mg/kg, gavage 15 mg/kg, mean of 4 animals

With `CC(=O)NC[C@@H]1OC(=O)N2c3ccc(-c4ccc(C#N)nc4)cc3OC[C@@H]12` [Compound 7, N-(((3S,3aS)-7-(6-cyanopyridin-3-yl)-1-oxo-1,3,3a,4-tetrahydrobenzo[b]oxazole-[3,4-d][1,4]oxazin-3-yl)methyl)acetamide] the metabolic properties ([1]; 15 mg/kg gavage and intravenous injection) was “good metabolic properties”, the AUC0-t [1, 8] was 57191 ng·h/mL and 61593 ng·h/mL and 79448 ng·h/mL and the “AUC0-∞” value [1, 8] was 57255 ng·h/mL and 61983 ng·h/mL and 79622 ng·h/mL. The CLz [1, 8] was 3.73 mL/min/kg and 4.37 mL/min/kg and 4.03 mL/min/kg and 3.13 mL/min/kg, the Cmax [1, 8] was 3958 ng/mL and 4772 ng/mL and 6269 ng/mL and the MRT [1, 8] was 8.65 h and 8.79 h and 9.09 h. The Tmax [1, 8] was 2.0 h and 5.0 h, the Vz [1, 8] was 1.81 L/kg and 1.79 L/kg and 2.22 L/kg and 1.44 L/kg and the t1/2 [1, 8] was 4.74 h and 6.36 h and 5.31 h. For the same compound, the CLz [1, 9] was 3.82 mL/min/kg, the Vz [1, 9] was 1.82 L/kg and the Tmax ([1]; intravenous injection 15 mg/kg, individual animals No. 5-6) was 2.0 h. For the same compound, the AUC0-t [1, 10] was 87218 ng·h/mL, the “AUC0-∞” value [1, 10] was 87475 ng·h/mL and the CLz [1, 10] was 3.28 mL/min/kg and 2.85 mL/min/kg. For the same compound, the MRT [1, 10] was 8.77 h, the Vz [1, 10] was 1.42 L/kg and the t1/2 [1, 10] was 5.72 h. The “AUC0-∞” value [1, 11] was 81844 ng·h/mL, the CLz [1, 11] was 3.07 mL/min/kg and the Tmax [1, 11] was 2.0 h. The t1/2 [1, 11] was 5.58 h, the AUC(0-inf) [1, 12] was 76200 ng·h/mL and the half-life [1, 12] was 5.44 h. It also gave an AUC0-t ([1]; male, SD, plasma, iv, 15 mg/kg, intravenous injection 15 mg/kg, individual animals No. 5-6, read-out: AUC0-t) of 76100 ng·h/mL, a Cmax ([1]; male, SD, plasma, iv, 15 mg/kg, intravenous injection 15 mg/kg, individual animals No. 5-6, read-out: Cmax) of 7510 ng/mL and an MRT ([1]; male, SD, plasma, iv, 15 mg/kg, intravenous injection 15 mg/kg, individual animals No. 5-6, read-out: MRT) of 7.98 h. The Vd ([1]; male, SD, plasma, iv, 15 mg/kg, intravenous injection 15 mg/kg, individual animals No. 5-6, read-out: Vz) was 1.55 L/kg, the AUC0-t ([1]; male, SD, plasma, iv, 15 mg/kg, intravenous injection 15 mg/kg, mean of 2 animals, read-out: AUC0-t) was 81600 ng·h/mL and the Cmax ([1]; male, SD, plasma, iv, 15 mg/kg, intravenous injection 15 mg/kg, mean of 2 animals, read-out: Cmax) was 7510 ng/mL. The MRT ([1]; male, SD, plasma, iv, 15 mg/kg, intravenous injection 15 mg/kg, mean of 2 animals, read-out: MRT) was 8.37 h, the Vd ([1]; male, SD, plasma, iv, 15 mg/kg, intravenous injection 15 mg/kg, mean of 2 animals, read-out: Vz) was 1.48 L/kg and the AUC(0-inf) [1, 13] was 67100 ng·h/mL. The half-life [1, 13] was 5.6 h, the AUC0-t ([1]; male, SD, plasma, po, 15 mg/kg, gavage 15 mg/kg, individual animals No. 1-4, read-out: AUC0-t) was 66900 ng·h/mL and the Cmax ([1]; male, SD, plasma, po, 15 mg/kg, gavage 15 mg/kg, individual animals No. 1-4, read-out: Cmax) was 5450 ng/mL. For the same compound, the MRT ([1]; male, SD, plasma, po, 15 mg/kg, gavage 15 mg/kg, individual animals No. 1-4, read-out: MRT) was 7.96 h, the AUC(0-inf) [1, 14] was 66500 ng·h/mL and the half-life [1, 14] was 5.5 h. For the same compound, the AUC0-t ([1]; male, SD, plasma, po, 15 mg/kg, gavage 15 mg/kg, mean of 4 animals, read-out: AUC0-t) was 66300 ng·h/mL, the Cmax ([1]; male, SD, plasma, po, 15 mg/kg, gavage 15 mg/kg, mean of 4 animals, read-out: Cmax) was 5110 ng/mL and the MRT ([1]; male, SD, plasma, po, 15 mg/kg, gavage 15 mg/kg, mean of 4 animals, read-out: MRT) was 8.62 h. The Tmax ([1]; male, SD, plasma, po, 15 mg/kg, gavage 15 mg/kg, mean of 4 animals, read-out: Tmax) was 4 h, the bioavailability ([1]; male, SD, plasma, po, gavage 15 mg/kg, calculated as AUC0-t, read-out: F (absolute bioavailability)) was 81.2% and the ED50 ([2]; MRSA) was 5.53 mg/kg. For the same compound, the ED50 ([2]; MRSA, ip) was 5.92 mg/kg and the “in vivo activity compared with control drug LZ” value ([2]; mouse model infected with MRSA) was “significantly better than that of the control drug LZ”.
For `N#Cc1ccc(-c2ccc3c(c2)OC[C@H]2[C@@H](Cn4ccnn4)OC(=O)N32)cn1` [Compound 49, (3R,3aS)-3-((1H-1,2,3-triazol-1-yl)methyl)-7-(6-cyanopyridin-3-yl)-3a,4-dihydrobenzo[b]oxazole[3,4-d][1,4]oxazine-1(3H)-one], the “MIC, Staphylococcus epidremidis sensitive strain (5 strains)” value [3] was 0.25, the “MIC, Staphylococcus epidermidis drug-resistant strain (5 strains)” value [4] was 250 µM (≈ 93.6 µg/mL) and the “MIC, Pneumococcus drug-resistant strain (4 strains)” value (“MIC … (4 strains)” below) [5] was 0.5. For the same compound, the “MIC, Staphylococcus aureus drug-resistant strain (6 strains)” value [6] was 0.25, the “MIC, Staphylococcs aureus sensitive strain (5 strains)” value [7] was 500 µM (≈ 187 µg/mL) and the “MIC, Enterococcus (6 strains)” value (Enterococcus (6 strains)) was 500 µM (≈ 187 µg/mL).
In the case of `Cn1nnnc1-c1ccc(-c2ccc3c(c2)OC[C@H]2[C@@H](Cn4ccnn4)OC(=O)N32)cn1` [Compound 51, (3R,3aS)-3-((1H-1,2,3-triazol-1-yl)methyl)-7-(6-(1-methyl-1H-tetrazol-5-yl)pyridin-3-yl)-3a,4-dihydrobenzo[b]oxazole[3,4-d][1,4]oxazine-1(3H)-one], the “MIC, Staphylococcus epidremidis sensitive strain (5 strains)” value [3] is reported as 0.5, the “MIC, Staphylococcus epidermidis drug-resistant strain (5 strains)” value [4] is reported as 500 µM (≈ 216 µg/mL) and the “MIC … (4 strains)” value [5] is reported as 0.5. For the same compound, the “MIC, Staphylococcus aureus drug-resistant strain (6 strains)” value [6] was 0.5, the “MIC, Staphylococcs aureus sensitive strain (5 strains)” value [7] was 250 µM (≈ 108 µg/mL) and the “MIC, Enterococcus (6 strains)” value (Enterococcus (6 strains)) was 500 µM (≈ 216 µg/mL).
For `CC(=O)NC[C@H]1CN(c2ccc(N3CCOCC3)c(F)c2)C(=O)O1` [LZ, linezolid, reference compound], the ED50 ([2]; ip, mice infected i.p. with MRSA, p.o (gavage 1 h after infection and again 4 h after first dose), deaths within seven days, read-out: ED50) was 8.5 mg/kg and the ED50 ([2]; mice infected i.p. with MRSA, iv 1 h after infection, deaths within seven days, read-out: ED50) was 8.51 mg/kg.
With “N(((3S,3aS)-7-(6-(4-methyl piperazin-1-yl)pyridin-3-yl)-1-oxo-1,3,3a,4-tetrahydrobenzo[b]oxazole-[3,4-d][1,4]oxazin-3-yl)methyl)acetamide [Compound 62]” the “MIC, Staphylococcus epidremidis sensitive strain (5 strains)” value [3] was 0.5, the “MIC, Staphylococcus epidermidis drug-resistant strain (5 strains)” value [4] was 500 µM and the “MIC … (4 strains)” value [5] was 0.5. For the same compound, the “MIC, Staphylococcus aureus drug-resistant strain (6 strains)” value [6] was 0.5, the “MIC, Staphylococcs aureus sensitive strain (5 strains)” value [7] was 500 µM and the “MIC, Enterococcus (6 strains)” value (Enterococcus (6 strains)) was 500 µM.
